Measurements from US4500712A, “Ergoline derivatives” (Farmitalia Carlo Erba S.p.A., priority 1981, dated 1985).

Experiments:
gastric secretion = test: Gastric antisecretory activity in pylorus-ligated rats (Shay et al.); type: in vivo, Sprague-Dawley male rats; settings: 4 h; rat, intraduodenal, at the time of ligature; read-out: Antisecretory activity (ED50, mg/kg i.d.)
Method: According to this method the tested compounds were injected intraduodenally at the time of ligature. Six Sprague-Dawley male rats (110-130 g) were used for each group. Twenty-four hours before the test, the rats were deprived of food but the water supply was maintained. On the day of the operation, the pylorus was ligated under light ether anaesthesia. Four hours after the ligature, the rats were sacrificed. The stomach secretion was collected and centrifuged at 3500 r.p.m. for 10 minutes and the volume, less sediment, was determined. The amount of free hydrochloric acid in the gastric juice was determined by titration against 0.01N sodium hydroxide, to an end point of pH 7.

restraint ulcers = test: Inhibition of restraint ulcers in rats (Bonfils et al.); type: in vivo, Sprague-Dawley male rats; settings: 1 h; rat, oral, one hour before immobilization; read-out: Anticular activity (ED50, mg/kg p.o.)
Method: The anti-ulcerogenic activity of the compounds of the present invention is shown, e.g., by the fact that they are active in the test of the inhibition of restraint ulcers in rats, according to the method of Bonfils et al., (Therapie, 1960, 15, 1096). According to this method the tested compounds were administered per os one hour before the immobilization.
Six Sprague-Dawley male rats (100-120 g), fasted 24 hours, were used for the experiment: a square flexible small-mesh wire netting was used for the immobilization and 4 hours after the immobilization the rats were sacrificed, their stomachs were removed and the lesions counted under a dissecting microscope.

[1] = test system: systolic blood pressure (S.B.P.) in SH-rats; test: Systolic blood pressure in spontaneously hypertensive rats (indirect tail cuff method); type: in vivo, spontaneously hypertensive rats (SHR, Kyoto)
Method: (§1) Indirect measurements of systolic blood pressure were carried out on groups of 4 spontaneously hypertensive rats (SHR, Kyoto), 8-10 weeks of age, supplied by Charles Rives, Italy.
(§2) The animals were maintained in an environment of 36° C. for 10-15 minutes to allow pulse pressure to be recorded and then systolic blood pressure and heart rate were measured by indirect tail cuff method using a W+W, BP recorder, model 8005.
(§3) The compounds were given orally, suspended in 5% arabic gum, once a day for 4 consecutive days and measurements were carried out before beginning the treatment and 1 and 5 hours after dosing in both the first and fourth day of treatment.
(§4) Control animals received the vehicle only (0.2 ml/100 g b.w.). As reference standards, hydralazine (1-5 mg/kg p.o.) and α-methyl-dopa (30-100 mg/kg p.o.) were also tested.
(§5) Drug-induced changes in systolic blood pressure and heart rate were calculated as differences from the pretreatment values.

[2] = test system: heart rate (HR) in SH-rats; test: Heart rate in spontaneously hypertensive rats (indirect tail cuff method)
Method: as §1, §2, §3, §4, §5

[3] = test system: syndrome induced by oxotremorine; settings: general statement; cited from earlier work
[4] = 5 mg/kg p.o., 1st day, 1 h post drug
[5] = 5 mg/kg p.o., 1st day, 5 h post drug
[6] = 5 mg/kg p.o., 4th day, 1 h post drug
[7] = 5 mg/kg p.o., 4th day, 5 h post drug
[8] = 1 mg/kg p.o., 1st day, 1 h post drug
[9] = 1 mg/kg p.o., 1st day, 5 h post drug
[10] = 1 mg/kg p.o., 4th day, 1 h post drug
[11] = 1 mg/kg p.o., 4th day, 5 h post drug

## CN1C[C@@H](CNC(=S)NC(=O)c2ccccc2)C[C@H]2c3cccc4[nH]cc(c34)C[C@H]21 [Ex 1, 6-Methyl-8α-(3-benzoyl-thioureidomethyl)-10β-ergoline]
Gastric secretion
  ED50: 2.5 mg/kg
Restraint ulcers
  ED50: 4.2 mg/kg

## CN1C[C@H](CNC(=S)NC(=O)c2ccccc2)C[C@@H]2c3cccc4[nH]cc(c34)C[C@H]21 [Ex 2, 6-Methyl-8β-(3-benzoyl-thioureidomethyl)-ergoline]
Gastric secretion
  ED50: 1.4 mg/kg
Restraint ulcers
  ED50: 0.7 mg/kg

## CC(=O)NC(=O)NC[C@@H]1C[C@@H]2c3cccc4[nH]cc(c34)C[C@H]2N(C)C1 [Ex 9, 6-Methyl-8β-(3-acetyl-ureidomethyl)-ergoline]
[1]; [4]
  Changes in S.B.P: -25 ΔmmHg
[1]; [5]
  Changes in S.B.P: -17 ΔmmHg
[1]; [6]
  Changes in S.B.P: -57 ΔmmHg
[1]; [7]
  Changes in S.B.P: -56 ΔmmHg

## CN1C[C@@H](CNC(=O)NC(=O)c2ccccc2)C[C@@H]2c3cccc4[nH]cc(c34)C[C@H]21 [Ex 10, 6-Methyl-8α-(3-benzoyl-ureidomethyl)-ergoline]
Gastric secretion
  ED50: 1 mg/kg
Restraint ulcers
  ED50: 7 mg/kg

## CC(=O)NC(=O)NC[C@H]1C[C@@H]2c3cccc4[nH]cc(c34)C[C@H]2N(C)C1 [Ex 26, 6-Methyl-8α-(3-acetyl-ureidomethyl)-ergoline]
[1]; [4]
  Changes in S.B.P: -28 ΔmmHg
[1]; [5]
  Changes in S.B.P: -60 ΔmmHg
[1]; [6]
  Changes in S.B.P: -45 ΔmmHg
[1]; [7]
  Changes in S.B.P: -36 ΔmmHg

## NNc1nncc2ccccc12 [Hydralazine, hydralazine]
[2]; [8]
  Changes in HR: +30 beats/min
[2]; [9]
  Changes in HR: +35 beats/min
[2]; [10]
  Changes in HR: +25 beats/min
[2]; [11]
  Changes in HR: +15 beats/min
[2]; [4]
  Changes in HR: +40 beats/min
[2]; [5]
  Changes in HR: +45 beats/min
[2]; [6]
  Changes in HR: +18 beats/min
[2]; [7]
  Changes in HR: +15 beats/min
[2]; Table 3, SH-rats
  effects on heart rate (in words): increase HR
[1]; [8]
  Changes in S.B.P: -5 ΔmmHg
[1]; [9]
  Changes in S.B.P: -15 ΔmmHg
[1]; [10]
  Changes in S.B.P: -5 ΔmmHg
[1]; [11]
  Changes in S.B.P: 0 ΔmmHg
[1]; [4]
  Changes in S.B.P: -40 ΔmmHg
[1]; [5]
  Changes in S.B.P: -20 ΔmmHg
[1]; [6]
  Changes in S.B.P: -20 ΔmmHg
[1]; [7]
  Changes in S.B.P: -7 ΔmmHg

## CN1[C@@H]2CC[C@H]1C[C@@H](OC(=O)C(CO)c1ccccc1)C2 (some centres unmarked) [atropine]
[3]
  anti-cholinergic activity of known agent: remarkable but undesired anti-cholinergic activity

## C[C@](N)(Cc1ccc(O)c(O)c1)C(=O)O [α-methyl-DOPA, α-methyl-dopa]
[2]; rat, in vivo
  effects on heart rate (in words): increase HR
[1]; 30 mg/kg p.o., 1st day, 1 h post drug
  Changes in S.B.P: -10 ΔmmHg
[1]; 30 mg/kg p.o., 1st day, 5 h post drug
  Changes in S.B.P: -20 ΔmmHg
[1]; 30 mg/kg p.o., 4th day, 1 h post drug
  Changes in S.B.P: -10 ΔmmHg
[1]; 30 mg/kg p.o., 4th day, 5 h post drug
  Changes in S.B.P: 0 ΔmmHg
[1]; 100 mg/kg p.o., 1st day, 1 h post drug
  Changes in S.B.P: -10 ΔmmHg
[1]; 100 mg/kg p.o., 1st day, 5 h post drug
  Changes in S.B.P: -25 ΔmmHg
[1]; 100 mg/kg p.o., 4th day, 1 h post drug
  Changes in S.B.P: -20 ΔmmHg
[1]; 100 mg/kg p.o., 4th day, 5 h post drug
  Changes in S.B.P: -25 ΔmmHg
